According to patent US20210353593A1 (Chinook Therapeutics, Inc., priority 2019, published 2021):
Read-outs that look alike come from different tables or passages of the source.

Test system: kidney tissue of g-ddY mice
[1] = 10 mg/kg/day vs untreated control
[2] = 20 mg/kg/day vs untreated control
[3] = 30 mg/kg/day vs untreated control

CCCCN(CCCC)C(=O)CN1C[C@H](c2ccc3c(c2)OCO3)[C@@H](C(=O)O)[C@@H]1c1ccc(OC)cc1 [Atrasentan, (2R,3R,4S)-4-(1,3-benzodioxol-5-yl)-1-[2-(dibutylamino)-2-oxoethyl]-2-(4-methoxyphenyl)pyrrolidine-3-carboxylic acid]
number of downregulated genes (10 mg/kg/day versus control): 15 genes | number of upregulated genes (10 mg/kg/day versus control): 25 genes | Acnat2 logFC (10 mg/kg/day vs control): 0.9174 | Apoc1 logFC (10 mg/kg/day vs control): −1.929 | Arnt1 logFC (10 mg/kg/day vs control): 1.039 | Asl logFC (10 mg/kg/day vs control): 0.707 | Bckdha logFC (10 mg/kg/day vs control): 0.5492 | Bmp6 logFC (10 mg/kg/day vs control): 0.7141 | Ccn1 logFC (10 mg/kg/day vs control): −1.087 | Ccn2 logFC (10 mg/kg/day vs control): −0.5379 | Cish logFC (10 mg/kg/day vs control): −1.301 | Cryl1 logFC (10 mg/kg/day vs control): 0.5206 | Dbp logFC (10 mg/kg/day vs control): −1.205 | Dpep1 logFC (10 mg/kg/day vs control): 0.6476 | Ethe1 logFC (10 mg/kg/day vs control): 0.941 | Filipl1 logFC (10 mg/kg/day vs control): −0.8186 | Frmd4b logFC (10 mg/kg/day vs control): 0.6863 | Gapdh logFC (10 mg/kg/day vs control): 0.6257 | Gem logFC (10 mg/kg/day vs control): −1.508 | Gm15910 logFC (10 mg/kg/day vs control): −1.397 | Hacl1 logFC (10 mg/kg/day vs control): 0.6805 | Igf1 logFC (10 mg/kg/day vs control): −0.8723 | Mapt logFC (10 mg/kg/day vs control): 0.7035 | Mef2c logFC (10 mg/kg/day vs control): −0.6217 | Mmd logFC (10 mg/kg/day vs control): −1.012 | Mnt logFC (10 mg/kg/day vs control): 0.6669 | Ndrg1 logFC (10 mg/kg/day vs control): 0.9887 | Npas2 logFC (10 mg/kg/day vs control): 1.415 | Nr4a1 logFC (10 mg/kg/day vs control): −1.525 | Pde3b logFC (10 mg/kg/day vs control): −0.6611 | Pdzd3 logFC (10 mg/kg/day vs control): 0.7268 | Pdzk1ip1 logFC (10 mg/kg/day vs control): 0.5308 | Pfkffb3 logFC (10 mg/kg/day vs control): −1.166 | S100g logFC (10 mg/kg/day vs control): 0.7546 | Sirt3 logFC (10 mg/kg/day vs control): 0.7376 | Slc5a2 logFC (10 mg/kg/day vs control): 0.7478 | Slc6a19 logFC (10 mg/kg/day vs control): 0.8567 | Slc7a9 logFC (10 mg/kg/day vs control): 0.5456 | Slc16a1 logFC (10 mg/kg/day vs control): 0.9808 | Slc19a1 logFC (10 mg/kg/day vs control): 0.6451 | Slc34a3 logFC (10 mg/kg/day vs control): 0.8923 | Zeb2 logFC (10 mg/kg/day vs control): −0.5638 | ET1 gene signature genes downregulated [1]: Grk5, Mllt3, Klf2, Pparg, Hgf, Edn1, Fos, Ptgs2, and IL-1b | ET1 gene signature genes upregulated [1]: Ccnd1, Ppara, Agt, Map2k2 and Hoxa9 | number of downregulated genes (20 mg/kg/day versus control): 281 genes | number of upregulated genes (20 mg/kg/day versus control): 214 genes | 1700101I11Rik logFC (20 mg/kg/day vs control): 1.658 | A530016L24Rik logFC (20 mg/kg/day vs control): −3.027 | Abcd2 logFC (20 mg/kg/day vs control): −2.686 | Adcy2 logFC (20 mg/kg/day vs control): −2.484 | Ankef1 logFC (20 mg/kg/day vs control): −3.382 | Apol6 logFC (20 mg/kg/day vs control): −3.616 | Aspdh logFC (20 mg/kg/day vs control): 0.9646 | Bche logFC (20 mg/kg/day vs control): −4.062 | C5ar2 logFC (20 mg/kg/day vs control): −4.271 | Cadm3 logFC (20 mg/kg/day vs control): −2.439 | Ccl8 logFC (20 mg/kg/day vs control): −2.999 | Ccl20 logFC (20 mg/kg/day vs control): −3.563 | Clec2h logFC (20 mg/kg/day vs control): 1.078 | Cndp1 logFC (20 mg/kg/day vs control): 0.9373 | Dio2 logFC (20 mg/kg/day vs control): −3.823 | Dnase1 logFC (20 mg/kg/day vs control): 1.086 | Ebf2 logFC (20 mg/kg/day vs control): −3.715 | Fcamr logFC (20 mg/kg/day vs control): 1.182 | Frs3 logFC (20 mg/kg/day vs control): 1.094 | Ftcd logFC (20 mg/kg/day vs control): 1.086 | Glis1 logFC (20 mg/kg/day vs control): 0.8776 | Hao2 logFC (20 mg/kg/day vs control): 0.9855 | Hrg logFC (20 mg/kg/day vs control): 4.888 | Igibp1 logFC (20 mg/kg/day vs control): 2.82 | Il1b logFC (20 mg/kg/day vs control): −3.029 | Iv1 logFC (20 mg/kg/day vs control): −3.8887 | Klf15 logFC (20 mg/kg/day vs control): 0.8799 | Krt5 logFC (20 mg/kg/day vs control): −3.044 | Lep logFC (20 mg/kg/day vs control): −5.905 | Lgals12 logFC (20 mg/kg/day vs control): −2.536 | Lhx1 logFC (20 mg/kg/day vs control): 0.9258 | Ly6d logFC (20 mg/kg/day vs control): −3.377 | Morn2 logFC (20 mg/kg/day vs control): 0.9375 | Nat81 logFC (20 mg/kg/day vs control): −3.263 | Ndrg1 logFC (20 mg/kg/day vs control): 0.8946 | Npas2 logFC (20 mg/kg/day vs control): 1.012 | Otop1 logFC (20 mg/kg/day vs control): −5.808 | Paral1 logFC (20 mg/kg/day vs control): −5.133 | Pfn3 logFC (20 mg/kg/day vs control): 0.934 | Plekhs1 logFC (20 mg/kg/day vs control): −3.661 | Prkar2b logFC (20 mg/kg/day vs control): −2.468 | Prodh logFC (20 mg/kg/day vs control): 0.8987 | Pvalb logFC (20 mg/kg/day vs control): 0.9441 | Ren1 logFC (20 mg/kg/day vs control): 1.117 | Slc6a19 logFC (20 mg/kg/day vs control): 0.9585 | Slc34a3 logFC (20 mg/kg/day vs control): 0.9345 | Sprr2a3 logFC (20 mg/kg/day vs control): −4.403 | Tmem37 logFC (20 mg/kg/day vs control): 0.9439 | Tns4 logFC (20 mg/kg/day vs control): −2.381 | ET1 gene signature genes downregulated [2]: Nfatc1, Grk5, Klf2, Cav1, Pparg, Itga5, Myc, Ednra, Sell, Hgf, Mmp2, Edn1, Syk, Fos, and IL-1b | ET1 gene signature genes upregulated [2]: Ccdn1, Cat, Ppara, Map2k2, Hoxa9, Agt, and Egfr | Ednra and Ednrb gene expression (30 mg/kg/day): downregulated | number of downregulated genes (30 mg/kg/day versus control): 768 genes | number of upregulated genes (30 mg/kg/day versus control): 910 genes | 1700003D09Rik logFC (30 mg/kg/day vs control): −2.087 | 1700101I11Rik logFC (30 mg/kg/day vs control): 1.613 | A530016L24Rik logFC (30 mg/kg/day vs control): −3.0348 | Adamts17 logFC (30 mg/kg/day vs control): −3.191 | Adcy2 logFC (30 mg/kg/day vs control): −2.327 | Ankef1 logFC (30 mg/kg/day vs control): −2.3582 | Arhgap36 logFC (30 mg/kg/day vs control): −2.908 | Atf3 logFC (30 mg/kg/day vs control): −2.22 | Bhmt logFC (30 mg/kg/day vs control): 4.173 | Calb1 logFC (30 mg/kg/day vs control): 1.211 | Ccl20 logFC (30 mg/kg/day vs control): −2.471 | Chadl logFC (30 mg/kg/day vs control): 1.41 | Clec2h logFC (30 mg/kg/day vs control): 1.215 | Clec4d logFC (30 mg/kg/day vs control): −4.65 | Cxcl2 logFC (30 mg/kg/day vs control): −2.6664 | Cyp27b1 logFC (30 mg/kg/day vs control): 1.35 | E030018B13Rik logFC (30 mg/kg/day vs control): −2.373 | Ebf2 logFC (30 mg/kg/day vs control): −2.386 | Ethe1 logFC (30 mg/kg/day vs control): 1.211 | Fam163b logFC (30 mg/kg/day vs control): −2.785 | Fat3 logFC (30 mg/kg/day vs control): −2.067 | Frs3 logFC (30 mg/kg/day vs control): 1.176 | G6pc logFC (30 mg/kg/day vs control): 1.207 | Gm20026 logFC (30 mg/kg/day vs control): −2.0755 | Igfbp1 logFC (30 mg/kg/day vs control): 3.447 | Igkv3-5 logFC (30 mg/kg/day vs control): −2.722 | Il1b logFC (30 mg/kg/day vs control): −2.263 | Kcnk2 logFC (30 mg/kg/day vs control): −2.431 | Kif1a logFC (30 mg/kg/day vs control): −2.108 | Misp3 logFC (30 mg/kg/day vs control): 1.307 | Mogat2 logFC (30 mg/kg/day vs control): 1.285 | Ndrg1 logFC (30 mg/kg/day vs control): 1.197 | Nepn logFC (30 mg/kg/day vs control): 1.291 | Nkx3-1 logFC (30 mg/kg/day vs control): 1.294 | Npas2 logFC (30 mg/kg/day vs control): 1.394 | Pgam2 logFC (30 mg/kg/day vs control): 1.24 | Plch2 logFC (30 mg/kg/day vs control): −2.423 | Pvalb logFC (30 mg/kg/day vs control): 1.389 | Ren1 logFC (30 mg/kg/day vs control): 1.531 | Rnf182 logFC (30 mg/kg/day vs control): −2.817 | S100g logFC (30 mg/kg/day vs control): 1.296 | Slc6a19 logFC (30 mg/kg/day vs control): 1.238 | Slc16a1 logFC (30 mg/kg/day vs control): 1.178 | Slc34a3 logFC (30 mg/kg/day vs control): 1.436 | Stx1b logFC (30 mg/kg/day vs control): −2.245 | Tns4 logFC (30 mg/kg/day vs control): −2.443 | Wnt10a logFC (30 mg/kg/day vs control): −2.071 | Xirp2 logFC (30 mg/kg/day vs control): −2.619 | ET1 gene signature genes downregulated [3]: Ednrb, Myc, Mllt3, Hdac7, Ednra, Itga5, Grk5, Pparg, Klf2, Hgf, Mmp2, Sell, Sphk1, Fos, Syk, Edn1, and IL-1b | ET1 gene signature genes upregulated [3]: Ccnd1, Agt, Cat, Map2k2, Hoxa9, and Ppara | ET1 (End1) gene expression (all three doses (10, 20, 30 mg/kg/day)): downregulated | genes overlapping with human specific Atra/ET1 gene signature (atrasentan treated mice): 53 of 60
